Data: publication PMC3979805, “Identification of Resveratrol Oligomers as Inhibitors of Cystic Fibrosis Transmembrane Conductance Regulator by High-Throughput Screening of Natural Products from Chinese Medicinal Plants” (PLoS ONE, 2014)

Columns and labels:
[1] = target: T1, cystic fibrosis transmembrane conductance regulator (CFTR) (Homo sapiens, UniProt P13569); assay: EYFP-H148Q iodide influx assay in FRT cells; excised inside-out patch-clamp ([…], reversible); format: cell-based
T1 construct: wild-type human CFTR stably expressed in FRT cells

[2] = target: T1, cystic fibrosis transmembrane conductance regulator (CFTR); assay: EYFP-H148Q iodide influx assay in FRT cells; excised inside-out patch-clamp ([…], nearly irreversible); format: cell-based

T1 sequence (P13569 whole entry): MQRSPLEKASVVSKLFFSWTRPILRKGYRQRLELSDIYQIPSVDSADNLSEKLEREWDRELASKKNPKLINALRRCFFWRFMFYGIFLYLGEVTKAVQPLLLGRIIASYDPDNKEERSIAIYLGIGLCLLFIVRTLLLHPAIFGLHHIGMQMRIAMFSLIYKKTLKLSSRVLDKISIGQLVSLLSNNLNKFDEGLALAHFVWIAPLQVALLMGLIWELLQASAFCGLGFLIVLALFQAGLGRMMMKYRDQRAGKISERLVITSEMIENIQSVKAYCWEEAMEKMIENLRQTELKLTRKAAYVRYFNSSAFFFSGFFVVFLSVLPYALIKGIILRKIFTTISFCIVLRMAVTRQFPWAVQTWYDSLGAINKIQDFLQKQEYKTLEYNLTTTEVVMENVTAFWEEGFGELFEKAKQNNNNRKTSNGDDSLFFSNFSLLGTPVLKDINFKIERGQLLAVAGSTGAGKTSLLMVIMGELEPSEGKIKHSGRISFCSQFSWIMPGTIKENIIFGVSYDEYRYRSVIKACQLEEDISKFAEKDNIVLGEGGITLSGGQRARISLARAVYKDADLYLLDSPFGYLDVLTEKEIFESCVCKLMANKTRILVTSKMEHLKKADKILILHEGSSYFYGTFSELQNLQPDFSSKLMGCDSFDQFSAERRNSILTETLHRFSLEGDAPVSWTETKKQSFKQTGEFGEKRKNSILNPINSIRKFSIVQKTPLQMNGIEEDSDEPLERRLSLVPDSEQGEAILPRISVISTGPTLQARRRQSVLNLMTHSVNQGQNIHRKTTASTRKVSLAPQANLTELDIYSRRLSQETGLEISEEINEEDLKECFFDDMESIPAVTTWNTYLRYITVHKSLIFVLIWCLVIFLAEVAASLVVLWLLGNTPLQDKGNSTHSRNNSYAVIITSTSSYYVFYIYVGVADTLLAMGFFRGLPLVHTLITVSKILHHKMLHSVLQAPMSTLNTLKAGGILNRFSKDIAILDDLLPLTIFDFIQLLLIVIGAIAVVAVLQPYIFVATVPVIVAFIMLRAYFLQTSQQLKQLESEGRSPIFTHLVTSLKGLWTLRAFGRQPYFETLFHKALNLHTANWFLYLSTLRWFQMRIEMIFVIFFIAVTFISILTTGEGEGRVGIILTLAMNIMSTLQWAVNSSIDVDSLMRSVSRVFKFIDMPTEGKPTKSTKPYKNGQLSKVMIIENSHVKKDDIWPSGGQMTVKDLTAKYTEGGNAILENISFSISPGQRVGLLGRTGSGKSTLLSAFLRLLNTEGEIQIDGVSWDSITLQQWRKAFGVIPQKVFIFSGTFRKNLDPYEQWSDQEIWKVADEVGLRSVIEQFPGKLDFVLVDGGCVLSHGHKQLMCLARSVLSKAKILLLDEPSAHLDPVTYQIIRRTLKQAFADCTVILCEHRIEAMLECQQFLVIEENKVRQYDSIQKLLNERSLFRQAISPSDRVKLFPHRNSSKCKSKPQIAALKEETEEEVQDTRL

| Structure (SMILES) | IC50 [1] [µM] | IC50 [2] [µM] |
| --- | --- | --- |
| Oc1ccc(/C=C/c2cc(O)cc3c2[C@H](c2cc(O)cc(O)c2)[C@@H](c2ccc(O)cc2)O3)cc1 [TV, trans-ε-viniferin] | ~20 | – |
| Oc1ccc([C@H]2c3c(O)cc(O)cc3[C@H]3c4c(cc(O)cc4[C@H]2c2cc(/C=C/c4cc(O)cc5c4[C@H](c4cc(O)cc(O)c4)[C@@H](c4ccc(O)cc4)O5)ccc2O)O[C@@H]3c2ccc(O)cc2)cc1 [RV, r-2-viniferin] | – | ~20 |
